Molecules are shown by their SMILES.

The test system of the test is Cell-based prion protein 5' UTR reporter, plate reader. Briefly: prion protein 5' UTR mRNA inhibitors – cell-based, plate reader, cherry-picked samples, dose response (AID 504539).
Take `Cc1ccc(N2C(=O)c3cccc4c(N)ccc(c34)C2=O)c2cccnc12`: the AC50 (usually the midpoint of the concentration-response curve, whichever way the signal moves) is 134 nM. Turning to `CC(C)(C)c1ccc(/C=N/Nc2cccc(C(=O)O)c2)cc1`, the AC50 is 2110 nM.

As for `CCc1ccn2cc(-c3ccc4c(c3)OCO4)nc2c1`, the AC50 was 384 nM. With `CSC1SCC2C(=O)N(C)C(C(C)C)C(=O)OCC(NC(=O)c3cnc4ccccc4n3)C(=O)NC(C)C(=O)N(C)C1C(=O)N(C)C(C(C)C)C(=O)OCC(NC(=O)c1cnc3ccccc3n1)C(=O)NC(C)C(=O)N2C` (configuration not stated) the figure was < 38 nM. In the case of `CCCOc1ccc2cc(-c3ccccn3)c(=O)oc2c1`, the AC50 was 399 nM. For `COc1ccc(-c2nsc3c(N4CCCCC4)ncnc23)cc1`, the AC50 was 1680 nM. `Cc1ccc2nc(-c3ccc4c(c3)OCCO4)cn2c1`: the AC50 is 110 nM. For `COc1cccc2c1C(=O)c1c(O)c3c(c(O)c1C2=O)CC(O)(C(C)=NNC(=O)c1ccc(Cl)c(Cl)c1)CC3OC1CC(N)C(O)C(C)O1` (configuration not stated), the concentration at half-maximal activity (AC50) is 1270 nM. In the case of `Cc1cc(C=C2C(=O)c3ccccc3C2=O)c(C)n1-c1ccccc1`, the AC50 was 809 nM. As for `CCC(C)Cn1c(O)cc2nn(-c3nc4ccccc4s3)c(=O)c-2c1C` (configuration not stated), the figure is 62 nM; as for `CCOc1ccc(C(=O)O/N=C(\N)c2ccccn2)cc1`, 134 nM. In the case of `Fc1ccc(-n2nnc(-c3cnc4ccccc4c3)n2)cc1`, the AC50 is 1040 nM. As to `Nc1nc(F)nc2c1ncn2[C@@H]1O[C@H](CO)[C@@H](O)[C@H]1O`, the AC50 is 483 nM. For `Cc1nn(-c2ccccc2)c(C)c1/C=N/NC(=O)c1cc(-c2cccs2)[nH]n1`, the AC50 is 1070 nM. On to `Cc1ccc(-c2cc(C(=O)N/N=C/c3c(C)nn(-c4ccccc4)c3C)[nH]n2)cc1`, for which the AC50 is 3000 nM. Turning to `CC1=Nc2cc(C(=O)NCc3ccco3)ccc2Sc2ccc(C)cc21`, the AC50 was 1670 nM. For `CCN(CC)c1ccc2c(cc1=O)[C@@H](NC)CCc1cc(OC)c(OC)c(OC)c1-2`, the AC50 is 634 nM. `CCCCCCN1C=CC(=C2C(=O)c3ccccc3C2=O)C=C1`: the AC50 was 369 nM. Turning to `COCCn1c(C)cc(C(=O)CSc2nnc(C)s2)c1C`, the AC50 is 696 nM.

On to `Nc1ccc(-c2ncc(-c3ccccc3)o2)cc1`, for which the AC50 is 145 nM. As for `Cc1cccc(/C=N/Nc2ccc3ccccc3n2)c1`, the figure is 456 nM. As for `C=C1C(=O)O[C@@H]2C[C@@H](C)[C@@H]3C=CC(=O)[C@@]3(C)[C@@H](O)[C@H]12`, the figure is 1580 nM. As for `C=C1CC(Cn2cc(Br)c(=O)[nH]c2=O)(c2ccc(-c3ccccc3)cc2)OC1=O` (configuration not stated), the figure is 1160 nM; as for `CC1=C(C(=O)Nc2ccc(CC(=O)NCc3ccc(OC(C)C)cc3)cc2)SCCO1`, 974 nM.

For `O=C1N(c2ccccc2)C[C@@H]2C[C@@H](c3cc4ccccc4o3)N3CCC[C@@]123`, the AC50 is 511 nM.

With `Cc1ccc(C(=O)O/N=C(\N)c2ccccn2)c(C)c1`, the AC50 was 46 nM. Take `COC(=O)c1nn(-c2ccc3c(c2)CCN3C(C)=O)cc1O`: the concentration at half-maximal activity (AC50) was 300 nM. As for `C/C=C/COC(=O)c1[nH]c2c(c1C)C(=O)CC(c1ccco1)C2` (configuration not stated), the figure is 660 nM; as for `CN1CCc2c(sc(NC(=O)c3ccc([N+](=O)[O-])o3)c2C(N)=O)C1`, 972 nM. As to `COc1cccc2c1C(=O)c1c(O)c3c(c(O)c1C2=O)CC(O)(C(C)=O)CC3OC1CC(N(C)C)C(O)C(C)O1` (configuration not stated), the concentration at half-maximal activity (AC50) is 165 nM.

In the case of `O=C1c2cccc3cc([N+](=O)[O-])cc(c23)C(=O)N1CCN1CCCC1`, the AC50 is 521 nM.

In the case of `CN=c1scc(-c2ccccc2F)n1/N=C/c1ccc[nH]1`, the AC50 was < 38 nM. With `CC(C)(C)C1C/C(=C/c2ccccn2)C(=O)/C(=C/c2ccccn2)C1` (configuration not stated), the AC50 was 815 nM.

In the case of `C=CC[n+]1c(-c2ccc(C)cc2)csc1Nc1ccc(NC(C)=O)cc1`, the AC50 was 3620 nM.

With `Cc1c(C(=O)OC2CCCC2)[nH]c2c1C(=O)CC(c1ccco1)C2` (configuration not stated), the AC50 is 791 nM. For the compound `CCC1(OC(=O)CN)C(=O)OCc2c1cc1n(c2=O)Cc2cc3ccccc3nc2-1` (configuration not stated), the AC50 is 987 nM.

In the case of `COc1ccc(OC)c(NS(=O)(=O)c2ccc(N3CCCC3=O)cc2)c1`, the AC50 was 880 nM. As to `CN(C(=O)OC(C)(C)C)c1ccc(-c2nc3ccccc3s2)cc1`, the AC50 is < 38 nM.

In the case of `Cc1c(C(=O)OCc2ccccc2)[nH]c2c1C(=O)CC(c1ccco1)C2` (configuration not stated), the AC50 is 388 nM. For the compound `CCN1CCN(Cc2ccc(NC(=O)c3ccc(C)c(NC(=O)c4cncc(-c5cccs5)c4)c3)cc2C(F)(F)F)CC1`, the AC50 was 156 nM.

As to `CCOc1ccc(OCc2cccc(C(=O)N3CCOCC3)c2)cc1`, the AC50 is 573 nM. As to `Cn1cc(/C=N/n2cnc3scc(-c4ccc(Cl)cc4)c3c2=O)c2ccccc21`, the AC50 was 499 nM. With `CNC(=O)Oc1ccc(-c2cn3cc(C)ccc3n2)cc1` the figure was 556 nM; with `CC(=O)OCC12CC(OC(=O)CC(C)C)C(C)=CC1OC1C(O)C(OC(C)=O)C2(C)C12CO2` (configuration not stated), < 38 nM. For `CCN(CC)c1ccc(/C=N/N=C(N)N)c(O)c1`, the AC50 is 1410 nM.

As for `CC(=O)OC(C)(C)/C=C/C(=O)C(C)(O)C1[C@H](O)C[C@@]2(C)C3CC=C4C(CC[C@@H](O)C4(C)C)[C@]3(CO)C(=O)C[C@]12C` (some centres not stated), the half-maximal activity concentration (AC50) was 85 nM.

As to `Brc1ccc(N=Nc2ccc3ccccc3n2)cc1`, the AC50 is 543 nM. With `COc1cc(SC)ccc1C(=O)Nc1nc2ccccc2[nH]1`, the AC50 is < 38 nM. With `C=CCn1c(C)cc(C(=O)CN2C(=O)c3ccccc3S2(=O)=O)c1C` the figure was 249 nM; with `COC(=O)C12OCC34C(CC5C(C)=C(O)C(=O)CC5(C)C3C(O)C1O)OC(=O)C(OC(=O)C=C(C)C)C24` (configuration not stated), < 38 nM; with `CC[C@@H](C)[C@H](C(CC(=O)N1CCCC1[C@@H](OC)[C@H](C)C(=O)N[C@H](Cc1ccccc1)c1nccs1)OC)N(C)C(=O)[C@H](NC(=O)[C@@H](C(C)C)N(C)C)C(C)C` (some centres not stated), 117 nM. Consider `CC(=O)O[C@H]1C(=O)[C@@]2(C)[C@H]([C@H](OC(=O)c3ccccc3)[C@]3(O)C[C@H](OC(=O)[C@H](O)C(NC(=O)c4ccccc4)c4ccccc4)C(C)=C1C3(C)C)[C@]1(OC(C)=O)CO[C@@H]1C[C@@H]2O` (some centres not stated), for which the AC50 is 170 nM. On to `Cc1ccoc1C(=O)Nc1ccc(CC(=O)O)cc1`, for which the AC50 is 374 nM. As for `O=C(N/N=C/c1c[nH]c2ccccc12)c1[nH]c2ccc(Br)cc2c1-c1ccccc1`, the figure is 774 nM; as for `O=C1NC2C(O)C(O)C(O)C(O)C2c2cc3c(c(O)c21)OCO3` (configuration not stated), 1480 nM. Consider `COc1ccc(-c2nsc3c(N4CCCCC4C)ncnc23)cc1` (configuration not stated), for which the AC50 was 51 nM. Take `CC(C)c1ccc(-c2nc3ccccc3s2)cc1`: the AC50 was < 38 nM. As to `Fc1ccc(-c2nnc(NC3=NCCCCC3)o2)cc1`, the concentration at half-maximal activity (AC50) is 372 nM. With `O=C(/C=C/Nc1ccccc1Br)c1ccccn1`, the AC50 is 281 nM. In the case of `CCCOC(=O)c1[nH]c2c(c1C)C(=O)CC(c1cccs1)C2` (configuration not stated), the half-maximal activity concentration (AC50) is 132 nM. As for `CCN(CCCl)c1cc(CN(C)C)cc(NC(=O)c2ccc(C(=O)Nc3cc(CN(C)C)cc(N(CC)CCCl)c3)cc2)c1`, the AC50 is 472 nM.

Turning to `Cc1ccc(C(=O)O/N=C(\N)c2ccccn2)c(Cl)c1`, the AC50 is 197 nM. Consider `COc1cc(-c2noc(C)c2-c2ccc(N(C)C)nc2)cc(OC)c1OC`, for which the AC50 is 358 nM.

Turning to `CC1OC(OC2C=C3CCC4C(CCC5(C)C(c6ccc(=O)oc6)CCC45O)C3(C)CC2)C(O)C(OC2OC(CO)C(O)C(O)C2O)C1O` (configuration not stated), the AC50 is < 38 nM. `COC(=O)C1CCC(=O)N1C(c1ccc(OC)cc1)c1cc(OC)c(OC)c(OC)c1` (configuration not stated): the AC50 was 676 nM. For `COc1cc(C2C(C#N)=C(N)Oc3cc(N)ccc32)cc(OC)c1OC` (configuration not stated), the AC50 is 614 nM. As to `Cc1ccc(C(=O)N/N=C/c2ccc([N+](=O)[O-])s2)cc1`, the AC50 is 1010 nM. With `COc1cc(NC(=O)c2cccs2)c(C(=O)OCC(=O)c2cc(C)n(-c3ccccc3)c2C)cc1OC` the figure was 989 nM; with `CC(=O)c1ccc(Oc2cc(C)nc(-n3nc(C)cc3C)n2)cc1`, 1250 nM; with `COc1ccc(C(=O)c2cc([N+](=O)[O-])ccc2N2CCOCC2)cc1`, 397 nM. Turning to `COc1ccc2c(c1)sc1nc(-c3ccccc3)cn12`, the AC50 was 556 nM. Take `NC(=O)c1cc2c3ccccc3ccn2c1-c1ccccc1`: the AC50 was 635 nM. In the case of `COC1C=CC=C(C)C(=O)NC2=CC(=O)C(N)=C(CC(C)CC(OC)C(O)C(C)C=C(C)C1OC(N)=O)C2=O` (configuration not stated), the AC50 is < 38 nM. For `COc1ccc(-n2ncc3c(N4CCCCC4)ncnc32)cc1`, the concentration at half-maximal activity (AC50) is 661 nM. Regarding `CC1CCC/C=C/C2CC(O)CC2C(O)/C=C/C(=O)O1` (configuration not stated), the AC50 is 51 nM. As to `COc1cc(OC)c2c(-c3cccc(-c4ccc(C(C)=O)cc4)c3)cc(=O)oc2c1`, the concentration at half-maximal activity (AC50) is 1580 nM. Turning to `CCOC(=O)c1[nH]c2c(c1C)C(=O)CC(c1ccco1)C2` (configuration not stated), the concentration at half-maximal activity (AC50) was 360 nM. With `CC(=O)OC1(C)CC(C)C(=O)C(C(O)CC2CC(=O)NC(=O)C2)C1` (configuration not stated), the AC50 is 500 nM. Consider `COc1ccccc1-c1nnc2n1N=C(c1ccc(O)c(O)c1)CS2`, for which the AC50 is 206 nM.

As for `COc1cc2c(c(OC)c1O)-c1ccc(OC)c(=O)cc1C(NC(=O)C(F)(F)F)CC2` (configuration not stated), the AC50 was 140 nM.

Take `O=C(NNC(=O)c1ccccc1O)c1ccccc1O`: the AC50 is 234 nM. As for `CCC(C)(C)c1ccc(Oc2ccc(N)cc2)cc1`, the figure is 173 nM; as for `CC1CCN(c2ccc(-c3cccc(NC(=O)C(F)(F)F)c3)nn2)CC1`, 194 nM; as for `COc1ccc(C2=Nn3c(nnc3-c3ccccc3OC)SC2)cc1OC1CCOC1` (configuration not stated), 3560 nM. For `Cc1ccc(NC(=O)O/N=C/c2c(C)nn(C(C)(C)C)c2C)cc1Cl`, the AC50 was 270 nM. As to `O=C(Nc1ccc(-c2nc3cccnc3s2)cc1)C1CCCO1` (configuration not stated), the AC50 is 630 nM. `CCn1c(C)nc2cc(-c3nc4n(n3)Cc3ccccc3-4)ccc21`: the AC50 was 44 nM. Regarding `CCCS(=O)(=O)c1cnc(C2COc3ccccc3O2)nc1N` (configuration not stated), the AC50 is 487 nM. For `C=CCN=C1NN=C(c2ccc3c(c2)OCCO3)CS1`, the AC50 was 411 nM. As to `O=C1/C(=C\c2ccc([N+](=O)[O-])cc2)CS(=O)(=O)C/C1=C/c1ccc([N+](=O)[O-])cc1`, the AC50 was 2060 nM. Regarding `O=C(O)c1cccc(N/N=C/c2cccs2)c1`, the AC50 is 349 nM. With `COc1ccc(C2=Nn3c(nnc3-c3ccccc3OC)SC2)cc1OC1CCCC1`, the AC50 was 2970 nM.

The values above are taken from PubChem BioAssay AID504539 (Broad Institute, 2011).
